Patent US8952024B2, “Herbicidal pyrimidone derivatives” (E I du Pont de Nemours and Company, priority 2009, dated 2015)

The molecules below were run on Italian ryegrass (Lolium multiflorum) (assay: Test B pre-/postemergence plant response). Conditions: Postemergence, 31 g ai/ha; 0 to 100 scale (0 no effect, 100 complete control).
Type: in vivo
How it was run: (§1)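 Greenhouse herbicide screen. Pre- and postemergence (1- to 4-leaf) spray of compound in solvent/surfactant mixture; loam–sand soil for pre, peat/vermiculite medium for post. Visual control rating 0–100 at 13 to 15 days after treatment.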

| SMILES | Plant response rating, Ryegrass, Italian |
| --- | --- |
| CCCn1c(-c2ccsc2)ncc(C(=O)C2=C(O)C3CCC(C3)C2=O)c1=O (stereo not shown) [Compound 227] | 0 |

Same assay, conditions: Postemergence, 62 g ai/ha; scale 0 to 100 (0 no effect, 100 complete control)

| SMILES | Plant response rating, Ryegrass, Italian |
| --- | --- |
| CCCn1c(-c2ccsc2)ncc(C(=O)C2=C(O)C3CCC(C3)C2=O)c1=O (stereo not shown) [Compound 227] | 0 |

Same assay, conditions: Postemergence, 250 g ai/ha; scale 0 to 100 (0 no effect, 100 complete control); 13 to 15 days

| SMILES | Plant response rating, Ryegrass, Italian |
| --- | --- |
| CCCn1c(-c2ccsc2)ncc(C(=O)C2=C(O)C3CCC(C3)C2=O)c1=O (stereo not shown) [Compound 227] | 10 |

These molecules were tested on Surinam grass (Brachiaria decumbens) (assay: Test B pre-/postemergence plant response). Conditions: Postemergence, 31 g ai/ha; 0 to 100 scale (0 no effect, 100 complete control).
Type: in vivo
How it was run: as §1

| SMILES | Plant response rating, Surinam Grass |
| --- | --- |
| CCCn1c(-c2ccsc2)ncc(C(=O)C2=C(O)C3CCC(C3)C2=O)c1=O (stereo not shown) [Compound 227] | 55 |

Same assay, conditions: Postemergence, 62 g ai/ha; scale 0 to 100 (0 no effect, 100 complete control)

| SMILES | Plant response rating, Surinam Grass |
| --- | --- |
| CCCn1c(-c2ccsc2)ncc(C(=O)C2=C(O)C3CCC(C3)C2=O)c1=O (stereo not shown) [Compound 227] | 70 |

Same assay, conditions: Postemergence, 250 g ai/ha; scale 0 to 100 (0 no effect, 100 complete control); 13 to 15 days

| SMILES | Plant response rating, Surinam Grass |
| --- | --- |
| CCCn1c(-c2ccsc2)ncc(C(=O)C2=C(O)C3CCC(C3)C2=O)c1=O (stereo not shown) [Compound 227] | 95 |

What follows are molecules tested on bermudagrass (Cynodon dactylon) (assay: Test B pre-/postemergence plant response). Conditions: Postemergence, 31 g ai/ha; 0 to 100 scale (0 no effect, 100 complete control).
Type: in vivo
How it was run: as §1

| SMILES | Plant response rating, Bermudagrass |
| --- | --- |
| CCCn1c(-c2ccsc2)ncc(C(=O)C2=C(O)C3CCC(C3)C2=O)c1=O (stereo not shown) [Compound 227] | 75 |

Same assay, conditions: Postemergence, 62 g ai/ha; scale 0 to 100 (0 no effect, 100 complete control)

| SMILES | Plant response rating, Bermudagrass |
| --- | --- |
| CCCn1c(-c2ccsc2)ncc(C(=O)C2=C(O)C3CCC(C3)C2=O)c1=O (stereo not shown) [Compound 227] | 75 |

Same assay, conditions: Postemergence, 125 g ai/ha; scale 0 to 100 (0 no effect, 100 complete control)

| SMILES | Plant response rating, Bermudagrass |
| --- | --- |
| CCCn1c(-c2ccsc2)ncc(C(=O)C2=C(O)C3CCC(C3)C2=O)c1=O (stereo not shown) [Compound 227] | 85 |

Same assay, conditions: Postemergence, 250 g ai/ha; scale 0 to 100 (0 no effect, 100 complete control); 13 to 15 days

| SMILES | Plant response rating, Bermudagrass |
| --- | --- |
| CCCn1c(-c2ccsc2)ncc(C(=O)C2=C(O)C3CCC(C3)C2=O)c1=O (stereo not shown) [Compound 227] | 90 |

What follows are molecules tested on blackgrass (Alopecurus myosuroides) (assay: Test B pre-/postemergence plant response). Conditions: Postemergence, 31 g ai/ha; 0 to 100 scale (0 no effect, 100 complete control).
Type: in vivo
How it was run: as §1

| SMILES | Plant response rating, Blackgrass |
| --- | --- |
| CCCn1c(-c2ccsc2)ncc(C(=O)C2=C(O)C3CCC(C3)C2=O)c1=O (stereo not shown) [Compound 227] | 0 |

Same assay, conditions: Postemergence, 62 g ai/ha; scale 0 to 100 (0 no effect, 100 complete control)

| SMILES | Plant response rating, Blackgrass |
| --- | --- |
| CCCn1c(-c2ccsc2)ncc(C(=O)C2=C(O)C3CCC(C3)C2=O)c1=O (stereo not shown) [Compound 227] | 0 |

Same assay, conditions: Postemergence, 125 g ai/ha; scale 0 to 100 (0 no effect, 100 complete control)

| SMILES | Plant response rating, Blackgrass |
| --- | --- |
| CCCn1c(-c2ccsc2)ncc(C(=O)C2=C(O)C3CCC(C3)C2=O)c1=O (stereo not shown) [Compound 227] | 5 |

Same assay, conditions: Postemergence, 250 g ai/ha; scale 0 to 100 (0 no effect, 100 complete control); 13 to 15 days

| SMILES | Plant response rating, Blackgrass |
| --- | --- |
| CCCn1c(-c2ccsc2)ncc(C(=O)C2=C(O)C3CCC(C3)C2=O)c1=O (stereo not shown) [Compound 227] | 20 |

The molecules below were run on corn (Zea mays) (assay: Test B pre-/postemergence plant response). Conditions: Postemergence, 31 g ai/ha; 0 to 100 scale (0 no effect, 100 complete control).
Type: in vivo
How it was run: as §1

| SMILES | Plant response rating, Corn |
| --- | --- |
| CCCn1c(-c2ccsc2)ncc(C(=O)C2=C(O)C3CCC(C3)C2=O)c1=O (stereo not shown) [Compound 227] | 20 |

Same assay, conditions: Postemergence, 62 g ai/ha; scale 0 to 100 (0 no effect, 100 complete control)

| SMILES | Plant response rating, Corn |
| --- | --- |
| CCCn1c(-c2ccsc2)ncc(C(=O)C2=C(O)C3CCC(C3)C2=O)c1=O (stereo not shown) [Compound 227] | 75 |

Same assay, conditions: Postemergence, 125 g ai/ha; scale 0 to 100 (0 no effect, 100 complete control)

| SMILES | Plant response rating, Corn |
| --- | --- |
| CCCn1c(-c2ccsc2)ncc(C(=O)C2=C(O)C3CCC(C3)C2=O)c1=O (stereo not shown) [Compound 227] | 75 |

Same assay, conditions: Postemergence, 250 g ai/ha; scale 0 to 100 (0 no effect, 100 complete control); 13 to 15 days

| SMILES | Plant response rating, Corn |
| --- | --- |
| CCCn1c(-c2ccsc2)ncc(C(=O)C2=C(O)C3CCC(C3)C2=O)c1=O (stereo not shown) [Compound 227] | 85 |

These molecules were tested on downy bromegrass (Bromus tectorum) (assay: Test B pre-/postemergence plant response). Conditions: Postemergence, 31 g ai/ha; 0 to 100 scale (0 no effect, 100 complete control).
Type: in vivo
How it was run: as §1

| SMILES | Plant response rating, Bromegrass, Downy |
| --- | --- |
| CCCn1c(-c2ccsc2)ncc(C(=O)C2=C(O)C3CCC(C3)C2=O)c1=O (stereo not shown) [Compound 227] | 0 |

Same assay, conditions: Postemergence, 62 g ai/ha; scale 0 to 100 (0 no effect, 100 complete control)

| SMILES | Plant response rating, Bromegrass, Downy |
| --- | --- |
| CCCn1c(-c2ccsc2)ncc(C(=O)C2=C(O)C3CCC(C3)C2=O)c1=O (stereo not shown) [Compound 227] | 0 |

Same assay, conditions: Postemergence, 125 g ai/ha; scale 0 to 100 (0 no effect, 100 complete control)

| SMILES | Plant response rating, Bromegrass, Downy |
| --- | --- |
| CCCn1c(-c2ccsc2)ncc(C(=O)C2=C(O)C3CCC(C3)C2=O)c1=O (stereo not shown) [Compound 227] | 0 |

Same assay, conditions: Postemergence, 250 g ai/ha; scale 0 to 100 (0 no effect, 100 complete control); 13 to 15 days

| SMILES | Plant response rating, Bromegrass, Downy |
| --- | --- |
| CCCn1c(-c2ccsc2)ncc(C(=O)C2=C(O)C3CCC(C3)C2=O)c1=O (stereo not shown) [Compound 227] | 25 |

These molecules were tested on giant foxtail (Setaria faberii) (assay: Test B pre-/postemergence plant response). Conditions: Postemergence, 31 g ai/ha; 0 to 100 scale (0 no effect, 100 complete control).
Type: in vivo
How it was run: as §1

| SMILES | Plant response rating, Foxtail, Giant |
| --- | --- |
| CCCn1c(-c2ccsc2)ncc(C(=O)C2=C(O)C3CCC(C3)C2=O)c1=O (stereo not shown) [Compound 227] | 75 |

Same assay, conditions: Postemergence, 62 g ai/ha; scale 0 to 100 (0 no effect, 100 complete control)

| SMILES | Plant response rating, Foxtail, Giant |
| --- | --- |
| CCCn1c(-c2ccsc2)ncc(C(=O)C2=C(O)C3CCC(C3)C2=O)c1=O (stereo not shown) [Compound 227] | 80 |

Same assay, conditions: Postemergence, 125 g ai/ha; scale 0 to 100 (0 no effect, 100 complete control)

| SMILES | Plant response rating, Foxtail, Giant |
| --- | --- |
| CCCn1c(-c2ccsc2)ncc(C(=O)C2=C(O)C3CCC(C3)C2=O)c1=O (stereo not shown) [Compound 227] | 90 |
